Measurements taken from PubChem BioAssay (NCI).
Values joined by “and” are separate entries in the source; they are usually repeats but may differ in a detail not shown here. Equal entries are not always repeated.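 Five concentrations, 48 hours, 96-well plates. GI50 is the concentration that inhibits growth by half. TGI is the concentration that stops growth completely.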 Where a SMILES comes first, the peptide text is derived from it. The star is where a group is joined. Cbz = O=C(OCc1ccccc1)*

Key:
Assay in all cases: inhibition of tumour cell growth, NCI panel, 48 h
HCT-15 colon = system: HCT-15 colon
HCC-2998 colon = system: HCC-2998 colon
NCI/ADR-RES ovarian = system: NCI/ADR-RES ovarian
BT-549 breast = system: BT-549 breast
MCF7 breast = system: MCF7 breast
SF-539 CNS = system: SF-539 CNS
PC-3 prostate = system: PC-3 prostate
SNB-19 CNS = system: SNB-19 CNS
RXF 393 renal = system: RXF 393 renal
HL-60(TB) leukemia = system: HL-60(TB) leukemia
T-47D breast = system: T-47D breast
CAKI-1 renal = system: CAKI-1 renal

SMILES	TGI (HCT-15 colon)	TGI (HCC-2998 colon)	TGI (NCI/ADR-RES ovarian)	TGI (BT-549 breast)	TGI (MCF7 breast)	TGI (SF-539 CNS)	TGI (PC-3 prostate)	TGI (SNB-19 CNS)	TGI (RXF 393 renal)	TGI (HL-60(TB) leukemia)	TGI (T-47D breast)	TGI (CAKI-1 renal)	GI50 (HCT-15 colon)	GI50 (NCI/ADR-RES ovarian)	GI50 (HL-60(TB) leukemia)
CN(C)CCCNc1ccc2ncn3c4ccc(O)cc4c(=O)c1c23	16.8 µM	18.1 µM	> 100 µM	31.9 µM	1.27 µM	15.7 µM	14.4 µM	20.1 µM	2.91 µM	13.1 µM	30.5 µM	1.59 µM			
O=Cc1ccc(-c2ccc(-c3ccc(CO)s3)o2)s1	> 100 µM	18.3 µM	40.4 µM	67.9 µM	> 100 µM	> 81.6 µM	> 100 µM	> 100 µM	47.6 µM	> 22.3 µM	62.3 µM				
O=C1c2c(Br)sc(Br)c2C(=O)C1(O)O	73.4 µM	> 100 µM	> 100 µM	37.9 µM	> 100 µM	39.4 µM	51.1 µM	> 100 µM	37.6 µM	> 100 µM	49.4 µM	33.3 µM			
CC(NC(=O)Cc1ccccc1)NC(=O)C(C)C(=O)NCc1ccccc1 (stereo not drawn)	> 100 µM		> 100 µM	75 µM	> 100 µM	> 100 µM	> 100 µM	58.8 µM	> 100 µM	> 100 µM	> 100 µM	> 100 µM			
NCCCN(CCCN)CCc1cn(C(=O)c2ccccc2)cn1	27.1 µM	19 µM	53.9 µM	35.1 µM	11.4 µM	35.3 µM	21.5 µM	33.6 µM	8.89 µM	10.8 µM	16.8 µM	16.1 µM			
CCC1CC(O)c2c(O)c3c(c(O)c2C1O)C(=O)c1cccc(O)c1C3=O (stereo not drawn) (tested in a mixture with another compound)		0.0478 µM and 0.0298 µM	0.295 µM	0.0704 µM	6.04 µM	0.0957 µM and 0.0893 µM	0.0749 µM and 0.159 µM	0.929 µM and 1.34 µM	0.0326 µM and 0.0459 µM	0.0866 µM and 0.0744 µM	0.18 µM and 0.0352 µM	0.0706 µM	0.0237 µM	0.0101 µM	0.0177 µM
COc1ccc2nc(-c3ccccc3)c(=O)[nH]c2c1	> 100 µM	> 100 µM	> 100 µM	> 100 µM	> 100 µM	> 100 µM	> 100 µM	> 100 µM	> 100 µM	> 100 µM	> 100 µM	> 100 µM			
CCOC(=O)c1c(OCC)[nH]c(=O)c(C(c2cccs2)c2c(O)c(C(=O)OCC)c(OCC)[nH]c2=O)c1O	37.5 µM	35 µM	> 100 µM	22.7 µM	53.9 µM	28.5 µM	> 100 µM	39.8 µM	19 µM	40.7 µM	17 µM	65.4 µM			
O=c1[nH]nc(Cc2ccc(Cl)cc2)n1/N=C/c1cccs1	> 100 µM	> 100 µM	> 100 µM	66.5 µM	> 100 µM	> 100 µM	> 100 µM	64 µM	32.7 µM	> 100 µM	> 100 µM	> 100 µM			
CC(=O)NC1C(Sc2ncn(C3OC(CO)C(O)C(O)C3NC(C)=O)n2)OC(CO)C(O)C1O (stereo not drawn)	> 100 µM	> 100 µM	> 100 µM	> 100 µM	> 100 µM	> 100 µM	> 100 µM	> 100 µM	> 100 µM	> 100 µM	> 100 µM	> 100 µM			
COc1ccc(C2(CC(C)C)CCN(S(=O)(=O)c3ccc(C)cc3)C2)cc1OC (stereo not drawn)	> 100 µM	> 100 µM	70.5 µM	> 100 µM	> 100 µM	> 100 µM	> 100 µM	> 100 µM	> 100 µM		> 100 µM	> 100 µM			
CCOc1cc(NC(C)=O)ccc1C(=O)NNS(=O)(=O)c1ccc(NC(C)=O)cc1	> 100 µM	> 100 µM	> 100 µM	> 100 µM	> 100 µM	> 100 µM	> 100 µM	> 100 µM	> 100 µM	78.8 µM	> 100 µM	> 100 µM			
CC(=O)SC(C[N+](=O)[O-])c1ccc2c(c1)OCO2 (stereo not drawn)	11.1 µM	3.47 µM	35.5 µM	14.2 µM	6.93 µM	5.14 µM	28.9 µM	21.5 µM	3.41 µM	4.67 µM	65.7 µM	18.6 µM			
CCCCC1Cc2cc(O)ccc2-c2nc3cc(O)ccc3n21 (stereo not drawn) (tested in a mixture with another compound)	25 µM	27.4 µM	49.4 µM	41.6 µM	37.5 µM	28.5 µM	53.3 µM	26.3 µM	35.6 µM	41.9 µM	> 100 µM	89 µM			
CCOC(=O)CCC(NC(=O)C(Cc1ccccc1)NC(=O)OCc1ccccc1)C(=O)OCC (stereo not drawn) (Cbz-Phe-Glu(OEt)-OEt; configuration not given here)	41.6 µM	32.1 µM	42 µM	> 100 µM	39.6 µM	37.6 µM	32.1 µM	36.7 µM	32.1 µM	41.2 µM	32.2 µM	30.4 µM			
Oc1c(Br)ccc2cccnc12	> 100 µM	> 100 µM	6.38 µM	> 92.2 µM	2.73 µM	> 50.6 µM	> 100 µM	> 100 µM	32.4 µM	1.32 µM	21.1 µM	60.3 µM			
CS(=O)(=O)N1CC(CCl)c2ccc(O)cc21 (stereo not drawn)	18.6 µM	4.2 µM	17.4 µM	8.35 µM	> 100 µM	5.05 µM	5.88 µM		4.19 µM	6.19 µM	48.2 µM	12.3 µM			
O=C1OCC2OC(=O)c3cc(O)c(O)c(O)c3-c3c(O)c(O)c(O)c4c3C(=O)OC(C2OC(=O)c2cc(O)c(O)c(O)c2-c2c1cc(O)c(O)c2O)C1OC(=O)C2C4=C(O)C(=O)C23Oc2cc(O)c4c(c2[C@H]13)O[C@H](c1ccc(O)c(O)c1)[C@@H](O)C4 (stereo partly drawn)	44.7 µM	> 100 µM	73.3 µM	83.3 µM	46.3 µM		> 100 µM	> 100 µM	34.9 µM	51.8 µM	74.8 µM	30.7 µM			
